Source: patent publication US20220175777A1, “Inhibitors of Multidrug Resistance Transporter P-Glycoprotein” (Southern Methodist University, priority 2014, published 2022)

How the values were obtained:
DU145TXR [1] = assay: Resensitization of DU145TXR to paclitaxel by 29 variants (MTT cell viability); assay type: cell-based, human; conditions: for Fold vs PTX ÷ 29: compared to parental compound 29
From the text: The Group 1 ChemGen/docking routine produced variants of P-gp inhibitor 29 resensitize a multidrug resistant, P-gp overexpressing prostate cancer cell line to paclitaxel. The mitochondrial reduction potential of cells is often used as an indicator for cell viability using MTT assays^40-42. Using these assays it was observed that the five Group 1 derivatives of 29 predicted through the ChemGen/docking routine and synthesized here, 216, 227, 231, 541 and 551, re-sensitized the P-gp overexpressing prostate cancer cell line, DU145TXR^33, to the chemotherapeutic, paclitaxel (FIG. 9, showing results of assays at concentrations of 3 μM, 5 μM, 7 μM, and 10 μM).
Cytotoxicity of the chemotherapeutic, paclitaxel (PTX) to P-gp overexpressing prostate cancer cells, DU145TXR, was determined in the absence and presence of the ChemGen designed 29-variants, 216, 227, 231, 541 and 551. For each experimental compound IC50 values of PTX alone or in the presence of inhibitors, fold improvement of PTX sensitivity in the presence of inhibitor, and fold improvement of PTX sensitivity by variants compared to parental compound 29 are given.

[2] = target: T1, Cysteineless Mouse MDR3 P-glycoprotein (Mus musculus, UniProt P21447, C1070A/C1121A/C1223A/C133A/C427A/C638A/C669A/C713A/C952A); assay: ATP hydrolysis by purified P-glycoprotein, basal and verapamil-stimulated; assay type: biochemical; conditions: for Effect on stimulated ATPase / Stimulated ATPase (% of DMSO): in the presence of verapamil; for Stimulated ATPase (% of DMSO) / Basal ATPase (% of DMSO): ± standard deviation; for Effect on basal ATPase / Basal ATPase (% of DMSO): without added transport substrate
T1 construct: made in house; host or cells: Pichia pastoris
T1 sequence (P21447 whole entry C133A/C427A/C638A/C669A/C713A/C952A/C1070A/C1121A/C1223A): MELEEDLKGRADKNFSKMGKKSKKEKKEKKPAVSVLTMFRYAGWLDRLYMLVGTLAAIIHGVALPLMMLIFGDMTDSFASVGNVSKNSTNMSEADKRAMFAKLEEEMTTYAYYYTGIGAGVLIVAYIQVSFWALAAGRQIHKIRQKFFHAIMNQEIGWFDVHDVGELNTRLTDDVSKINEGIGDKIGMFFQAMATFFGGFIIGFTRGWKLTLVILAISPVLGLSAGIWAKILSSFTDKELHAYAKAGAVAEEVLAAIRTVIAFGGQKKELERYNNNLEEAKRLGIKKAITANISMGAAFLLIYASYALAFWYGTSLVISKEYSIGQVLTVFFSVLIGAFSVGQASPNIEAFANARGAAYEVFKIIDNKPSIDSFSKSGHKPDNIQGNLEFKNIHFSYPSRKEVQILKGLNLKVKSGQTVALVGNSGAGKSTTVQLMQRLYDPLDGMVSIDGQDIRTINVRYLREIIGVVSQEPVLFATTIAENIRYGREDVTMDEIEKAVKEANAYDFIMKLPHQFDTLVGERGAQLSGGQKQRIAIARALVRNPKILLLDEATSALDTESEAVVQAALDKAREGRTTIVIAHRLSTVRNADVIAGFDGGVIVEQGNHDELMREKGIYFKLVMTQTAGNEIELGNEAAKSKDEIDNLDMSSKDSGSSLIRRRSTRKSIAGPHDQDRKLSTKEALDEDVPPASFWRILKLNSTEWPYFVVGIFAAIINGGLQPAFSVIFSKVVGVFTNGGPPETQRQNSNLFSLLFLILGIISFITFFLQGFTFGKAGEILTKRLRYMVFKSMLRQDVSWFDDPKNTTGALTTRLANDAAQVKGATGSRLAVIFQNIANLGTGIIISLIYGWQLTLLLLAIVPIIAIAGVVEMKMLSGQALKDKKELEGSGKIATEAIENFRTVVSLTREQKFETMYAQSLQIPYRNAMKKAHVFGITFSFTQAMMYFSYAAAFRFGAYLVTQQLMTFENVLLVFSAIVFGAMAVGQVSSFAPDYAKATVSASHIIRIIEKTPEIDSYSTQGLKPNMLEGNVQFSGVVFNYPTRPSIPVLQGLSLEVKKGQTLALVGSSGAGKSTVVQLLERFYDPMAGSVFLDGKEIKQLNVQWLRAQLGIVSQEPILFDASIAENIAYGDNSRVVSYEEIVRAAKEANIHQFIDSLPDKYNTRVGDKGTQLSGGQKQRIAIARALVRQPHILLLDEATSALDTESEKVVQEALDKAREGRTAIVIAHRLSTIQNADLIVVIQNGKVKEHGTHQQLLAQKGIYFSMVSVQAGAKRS
From the text: The efficacy of molecules identified using in silico methods to function as potential inhibitors of P-glycoprotein was initially tested with regard to their capability to inhibit ATP hydrolysis by purified P-glycoprotein. For this purpose, a well-established activity assay for ATP hydrolyzing enzymes that uses the oxidation of NADH to NAD+ through coupling the reactions of pyruvate kinase and lactate dehydrogenase to the hydrolysis of ATP was adapted to medium throughput conditions on 96 well plates. […] In this set-up, the effects of potential small molecule inhibitors on the ATP hydrolysis activity of P-glycoprotein were tested in duplicate or triplicate and were repeated at least two times using different enzyme preparations.
The P-glycoprotein used in these assays was a close relative of the human P-glycoprotein that is found in mice. A mutant version of the mouse P-glycoprotein where all intrinsic cysteine amino acids had been replaced by alanine residues was recombinantly expressed in the yeast Pichia pastoris and used for these initial tests. […] Prior to testing the ATP-hydrolysis activity, P-glycoprotein was incubated with phosphatidyl choline for stabilization of the enzyme during the assay.
Different concentrations of the to-be-tested small molecules were added and pre-incubated at 37° C. The ATP hydrolysis reaction was then started by adding equal volume of double concentrated ATPase cocktail. The final ATP concentration in the reaction was 2 mM. The reaction was allowed to proceed for 20 minutes, the rate of ATP hydrolysis was calculated using the molar extinction coefficient of NADH, and the one-to-one relationship of ATP hydrolyzed and NADH oxidized.
Evaluation of mode of inhibition of P-glycoprotein by Group 1 and Group 2 variants of compound 29. To assess the mode of inhibition of P-gp by the novel variants of P-gp inhibitor 29, ATP hydrolysis by P-gp was evaluated in the presence or absence of the variants. […] Murine P-gp (MDR3) expressed in Pichia pastoris that had all naturally occurring cysteines replaced with alanine, was used^45, 46. It is widely assumed that the ATP hydrolytic rate of P-gp is stimulated in the presence of transport substrates when compared to ATP hydrolysis in the absence of transport substrates. Assays comparing these rates can therefore be useful not only in identifying inhibitors of P-gp catalyzed ATP hydrolysis, but also to potentially infer whether a compound might be a transport substrate if basal ATPase rates are stimulated by the addition of a compound.

P-gp = P-gp (Homo sapiens, UniProt P08183)
Chain of P-gp (P08183 whole entry): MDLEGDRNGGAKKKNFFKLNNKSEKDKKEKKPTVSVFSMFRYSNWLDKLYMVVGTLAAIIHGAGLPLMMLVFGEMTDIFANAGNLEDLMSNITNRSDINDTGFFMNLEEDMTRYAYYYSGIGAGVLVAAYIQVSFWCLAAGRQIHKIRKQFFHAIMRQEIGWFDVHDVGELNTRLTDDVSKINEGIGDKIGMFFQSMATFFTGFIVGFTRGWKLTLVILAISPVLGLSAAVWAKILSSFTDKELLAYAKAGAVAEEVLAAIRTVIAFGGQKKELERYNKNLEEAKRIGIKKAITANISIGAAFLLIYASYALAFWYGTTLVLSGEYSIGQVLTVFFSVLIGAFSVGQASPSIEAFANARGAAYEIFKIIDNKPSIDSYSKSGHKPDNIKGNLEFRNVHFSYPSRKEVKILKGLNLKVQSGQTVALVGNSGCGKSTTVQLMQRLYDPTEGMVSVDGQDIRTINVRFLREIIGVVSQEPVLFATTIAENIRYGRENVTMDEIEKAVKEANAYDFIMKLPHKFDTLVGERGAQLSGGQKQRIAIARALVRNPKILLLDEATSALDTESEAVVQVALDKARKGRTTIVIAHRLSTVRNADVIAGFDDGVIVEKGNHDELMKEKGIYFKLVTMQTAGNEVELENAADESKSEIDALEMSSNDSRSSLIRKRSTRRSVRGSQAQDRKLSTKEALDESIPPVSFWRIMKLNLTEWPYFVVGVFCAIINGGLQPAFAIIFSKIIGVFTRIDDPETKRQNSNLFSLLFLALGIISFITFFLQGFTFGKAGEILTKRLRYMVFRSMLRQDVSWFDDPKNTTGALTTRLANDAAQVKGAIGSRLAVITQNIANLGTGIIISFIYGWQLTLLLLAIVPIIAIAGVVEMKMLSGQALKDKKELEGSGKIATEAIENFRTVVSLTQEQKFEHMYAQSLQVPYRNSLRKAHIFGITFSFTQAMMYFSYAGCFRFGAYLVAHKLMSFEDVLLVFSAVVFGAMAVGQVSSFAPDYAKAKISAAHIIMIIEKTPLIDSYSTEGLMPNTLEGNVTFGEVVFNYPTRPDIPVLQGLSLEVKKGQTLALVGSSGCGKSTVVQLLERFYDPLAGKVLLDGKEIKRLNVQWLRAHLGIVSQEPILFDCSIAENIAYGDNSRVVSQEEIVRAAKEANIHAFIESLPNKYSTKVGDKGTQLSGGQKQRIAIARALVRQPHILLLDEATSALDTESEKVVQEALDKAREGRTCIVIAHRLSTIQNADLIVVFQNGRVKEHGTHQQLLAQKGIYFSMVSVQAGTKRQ
Experimental: Stimulation of basal ATPase by 29-variants was used as an indicator that a compound may be a P-gp transport substrate. Effects on stimulated P-gp ATPase activity indicated whether a compound directly interfered with ATP usage by the protein (***, p<0.001; **, p<0.01; *, p<0.1; NS, not significant). Quantitative cellular accumulation of 29-variants was performed using LC-MS/MS and is presented as a ratio of the cellular amounts of 29-variants in the presence of P-gp inhibitor, tariquidar, divided by amounts accumulated in its absence. […] Binding of an ATP analog, SL-ATP, to P-gp was used to determine whether ATP binding to P-gp was affected by the 29-variants. Values+/−standard deviations are shown for at least three different P-gp preparations and three independent SL-ATP titration experiments. The values for SL-ATP binding in the presence of 29 were taken directly from Brewer et al. (2014).
Intracellular accumulation of compound 29 variants. Cell accumulation assays for each of the 29 variants were performed as in reference^28 to more directly assess whether the compounds were indeed transport substrates for P-gp.

[3] = target: T1, Cysteineless Mouse MDR3 P-glycoprotein; assay: SL-ATP binding to P-gp by ESR spectroscopy; conditions: for Maximum ATP binding mol SL-ANP bound/mol P-gp: SL-ATP titration in presence of compound
From the text: Determination of the possible mode of ATP hydrolysis inhibition by the identified P-glycoprotein inhibitors. The mode of hydrolysis of ATP by P-glycoprotein was investigated by measuring the maximal binding stoichiometry and binding affinity of an analog of ATP, SL-ATP, and by Electron Spin Resonance (ESR) spectroscopy, similar to in both the presence and absence of the identified inhibitors.
The high-field signal of the freely mobile, unbound SL-ATP is compared and is used to calculate the amount of ATP-analog bound to P-glycoprotein. Binding of SL-ATP in the absence of any P-glycoprotein inhibitor saturated at about 2 mol of SL-nucleotide bounds per mol of P-glycoprotein.
FIGS. 2A-2D are plots showing the effects of P-glycoprotein ATP hydrolysis inhibitors on nucleotide binding. Between 30 and 50 microM Pgp were incubated with 50 microM inhibitor compound. Increasing amounts of SL-ATP were added. The ESR signal of the free SL-ATP in the presence of P-glycoprotein and inhibitor was compared to that in the absence of P-glycoprotein. The graphs represent at least 3 individual studies each using 3 to 5 different P-glycoprotein preparations.

[4] = target: Normal Human MDR1 P-glycoprotein (Homo sapiens, UniProt P08183); assay: ATP hydrolysis by human P-gp assembled into membrane nanodiscs; assay type: biochemical; conditions: human MDR1 P-gp in nanodiscs
Chain of Normal Human MDR1 P-glycoprotein (P08183 whole entry): as above
From the text: To assess whether the observed discrepancies of compounds stimulating basal P-gp ATPase activity but not being transport substrates of the human pump in the cell culture assessments were due to the fact that these biochemical assays used a cysteineless variant of the mouse MDR3 P-glycoprotein, the experiments were repeated using normal human MDR1 P-gp. In order to stabilize the human protein for the activity assays, the protein was assembled into membrane nanodiscs as described herein.

[5] = tested on: P-gp overexpressing DU145TXR cells; assay: Calcein AM accumulation assay; assay type: cell-based, human
Experimental: Accumulation and cellular retention of calcein AM in P-gp overexpressing prostate cancer cells upon incubation with Group 1 SMU-29 variants. Calcein AM accumulation assays have been used by us previously to evaluate P-gp-substrate accumulation in real time in the presence or absence of P-gp inhibitors^28. For these assays, P-gp overexpressing DU145TXR cells were incubated with the respective inhibitors in the presence of the P-gp substrate, calcein AM. Inhibition of P-gp leads to cellular accumulation of calcein AM and to cleavage of its acetoxymethyl ester groups, resulting in the generation of the highly fluorescent compound, calcein. The anionic calcein is not a substrate of P-gp and remains in the cells. In these assays, the relative fluorescence of cellular calcein was measured over time and the results of these assays are shown in FIG. 10A.
The inventors determined if preferential partitioning of variants in the hydrophobic part of the cell membrane may keep them more distant from the putative allosteric site on P-gp which is located adjacent to the membrane in the cytoplasm, therefore potentially slowing the inhibitory effect of the compounds.

DU145TXR [6] = assay: Intrinsic toxicity, MTT survival; assay type: cell-based, human; conditions: in the absence of chemotherapeutic
Experimental: Percent survival determined by MTT assay calculated relative to cells treated with equal volume DMSO vehicle and represent the mean±SEM from 2-4 separate studies, each study performed in triplicate wells.
The intrinsic in vitro toxicities of identified compounds were evaluated to determine their potential therapeutic window. This was assessed in a noncancerous cell line (HFL1) and the human prostate cancer cell lines DU145 and the MDR sub-line DU145TxR.

SMILES	Fold vs PTX ÷ 29 (DU145TXR [1]; 5 μM inhibitor)	Fold vs PTX (DU145TXR [1]; 5 μM inhibitor, vs PTX alone)	Fold vs PTX ÷ 29 (DU145TXR [1]; 7 μM inhibitor)	Fold vs PTX (DU145TXR [1]; 7 μM inhibitor, vs PTX alone)	Fold vs PTX ÷ 29 (DU145TXR [1]; 10 μM inhibitor)	Fold vs PTX (DU145TXR [1]; 10 μM inhibitor, vs PTX alone)	Stimulated ATPase (% of DMSO) [2]	Basal ATPase (% of DMSO) [2]	Maximum ATP binding mol SL-ANP bound/mol P-gp [3]	Basal ATPase (% of DMSO) [4]	Stimulated ATPase (% of DMSO) [4]	Cellular calcein accumulation relative to parental compound 29 ([5]; after 6-hour pre-incubation)	Cellular calcein accumulation relative to parental compound 29 ([5]; no preincubation)	also measured
Cc1cc(C)c(-c2cc(NC(=O)CSCC(=O)c3ccc4c(c3)Cc3ccccc3-4)n(-c3ccccc3)n2)cc1C [SMU29-216]	1.3 Fold	14 Fold	1 Fold	34 Fold	0.4 Fold	37 Fold	108 ± 2 % of DMSO	105 ± 7 % of DMSO	1.7 ± 0.1 mol SL-ANP bound/mol P-gp	69 ± 8 % of DMSO	64 ± 6 % of DMSO			Effect on stimulated ATPase [2]: none; Effect on stimulated ATPase ([2]; listed as 216): did not affect; Effect on basal ATPase [2]: none; Effect on basal ATPase ([2]; listed as 216): did not significantly affect; Cellular accumulation: ratio of plus Tariquidar over no Tariquidar (P-gp): 1.1; Transport substrate for P-gp (P-gp; not told): no; Effect on SL-ANP binding [3]: no; Effect on basal ATPase [4]: inhibitor; Effect on stimulated ATPase [4]: inhibitor
Cc1cc(C)c(-c2cc(NC(=O)CSc3cccc(NC(=O)c4cncc(Br)c4)c3)n(-c3ccccc3)n2)cc1C [SMU29-551, 5-bromo-N-(3-((2-oxo-2-((1-phenyl-3-(2,4,5-trimethylphenyl)-1H-pyrazol-5-yl)amino)ethyl)thio)phenyl)nicotinamide]	9.7 Fold	106 Fold	6.6 Fold	236 Fold	3.5 Fold	353 Fold	62 ± 5 % of DMSO	150 ± 6 % of DMSO	1.7 ± 0.1 mol SL-ANP bound/mol P-gp	72 ± 9 % of DMSO	27 ± 1 % of DMSO	equivalent to 29	marginally higher calcein accumulation than parental compound 29	
Cc1cc(C)c(-c2cc(NC(=O)CSc3nnc4c(n3)[nH]c3ccccc34)n(-c3ccccc3)n2)cc1C [SMU29-541, 2-((5H-[1,2,4]triazino[5,6-b]indol-3-yl)thio)-N-(1-phenyl-3-(2,4,5-trimethylphenyl)-1H-pyrazol-5-yl)acetamide]	9.2 Fold	101 Fold	3.4 Fold	125 Fold	3.4 Fold	125 Fold	68 ± 7 % of DMSO	101 ± 12 % of DMSO	1.8 ± 0.1 mol SL-ANP bound/mol P-gp	87 ± 9 % of DMSO	66 ± 6 % of DMSO	exceeded 29 significantly	performed relatively equally to 29	Fold vs PTX (DU145TXR [1]; 3 μM inhibitor, fold improvement of PTX sensitivity vs PTX alone): 5 Fold; Toxicity in cell viability assays (DU145TXR [6]): some toxicity
